Columns and labels:
cotton cotyledons = experiment: Cotton cotyledon bioefficacy assay (ethylene production by gas chromatography); format: in vivo; conditions: for Ethylene production in cotton cotyledons, average: Average of trials, 500 ppm ACC, 48 hours after application; for Ethylene production in cotton cotyledons: 500 ppm ACC sprayed on 10-day old cotyledons, removed 48 hours after application, incubated 4 to 7 hours
Procedure: The ACC anhydrate from Chem-Impex International, Inc., an ACC anhydrate prepared by Inogent Laboratories of India and the ACC trihydrate of the present invention were each dissolved with water to 500 ppm w!w of ACC and applied separately to individual sets of 10-day old cotton cotyledons by a hand sprayer in 4 separate trials. 48 hours after application the cotyledons were removed and incubated in sealed vials for 4 to 7 hours. Following incubation, the cotyledons were measured for ethylene gas production by gas chromatography.

[1] = Crystal form stability under high humidity; format: physicochemical

Structure (SMILES)	Ethylene production in cotton cotyledons, average (cotton cotyledons) [nL C2H4/g/hr]	Ethylene production in cotton cotyledons (cotton cotyledons; Trial 1) [nL C2H4/g/hr]	Ethylene production in cotton cotyledons (cotton cotyledons; Trial 2) [nL C2H4/g/hr]	Ethylene production in cotton cotyledons (cotton cotyledons; Trial 3) [nL C2H4/g/hr]	Ethylene production in cotton cotyledons (cotton cotyledons; Trial 4) [nL C2H4/g/hr]	Ethylene production in cotton cotyledons, average (cotton cotyledons; trihydrate) [nL C2H4/g/hr]	Ethylene production in cotton cotyledons (cotton cotyledons; Trial 1, trihydrate) [nL C2H4/g/hr]	Ethylene production in cotton cotyledons (cotton cotyledons; Trial 2, trihydrate) [nL C2H4/g/hr]	Ethylene production in cotton cotyledons (cotton cotyledons; Trial 3, trihydrate) [nL C2H4/g/hr]	Ethylene production in cotton cotyledons (cotton cotyledons; Trial 4, trihydrate) [nL C2H4/g/hr]	Stability of crystal form [1]
NC1(C(=O)O)CC1 [Inogent Anhydrate]	20.07	25.00	20.33	17.53	17.43	–	–	–	–	–	–
NC1(C(=O)O)CC1 [Chem-Impex Anhydrate, 1-aminocyclopropane-1-carboxylic acid anhydrate]	25.66	28.14	23.18	–	–	–	–	–	–	–	–
NC1(C(=O)O)CC1 [Trihydrate, 1-aminocyclopropane-1-carboxylic acid trihydrate]	–	–	–	–	–	22.71	15.06	22.04	36.30	17.46	most stable crystal form of ACC under high humidity
